In patent publication US12532889B2, “Herbicidal compositions comprising glufosinate” (BASF SE, priority 2023, dated 2026):
Where “and” joins values, the source holds several entries; their conditions need not be identical. Equal values may be shown once.

Key:
Assay in all cases: Post-emergence application in field trials (Example A)
Type in all cases: in vivo
[1] = system: AVEFA (Avena fatua); conditions: Table 3.1; AVEFA growth stage 22-24, height 18-29 cm; A-1 12.5, B-2 500 g ai/ha; 28 DAT; water 100 l/ha
Outline: (§1)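 Percent weed damage (0 = none, 100 = complete destruction), scored against untreated controls at the given DAT, is reported for solo and combined applications. Weeds, naturally occurring or seeded on field plots, were treated after emergence. Colby's formula supplied the additive expectation.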

[2] = system: ZEAMX (Zea mays)
Outline: as §1

[3] = system: IPOTR (Ipomoea triloba); conditions: 21 DAT
Outline: as §1

[4] = system: CYPKH (Cyperus kyllingia var. humilis); conditions: Table 5.4; CYPKH growth stage 76-77, height 13-14 cm; A-1 25, B-6 252 g ai/ha; 28 DAT; water 400 l/ha
Outline: as §1

[5] = system: ECHCG (Echinocloa crus-galli)
Outline: as §1

[6] = system: HORVW (Hordeum vulgare (winter barley))
Outline: as §1

[7] = system: LOLMU (Lolium multiflorum)
Outline: as §1

[8] = system: DIGSA (Digitaria sanguinalis); conditions: for % Herbicidal activity: A-1 12.5 g ai/ha, growth stage 22
Outline: as §1

[9] = system: CYPES (Cyperus esculentus); conditions: 21 DAT, water 140 l/ha
Outline: as §1

[10] = system: PASSC (Paspalum scrobiculatum); conditions: Table 5.2, A-1 25, B-6 252 g ai/ha, 21 DAT, water 450 l/ha
Outline: as §1

[11] = system: COMDI (Commelina diffusa); conditions: Table 5.3; COMDI growth stage 76-77; A-1 25, B-6 252 g ai/ha; 28 DAT; water 300 l/ha
Outline: as §1

[12] = system: CNDSS (Conyza sp.); conditions: Table 1.5; CNDSS growth stage 26-59, height 15-55 cm; A-1 50, B-2 600 g ai/ha; 14 DAT; water 200 l/ha
Outline: as §1

[13] = system: SETVE (Setaria verticillata); conditions: 42 DAT, growth stage 21-23, height 8-16 cm
Outline: as §1

[14] = system: CYPIR (Cyperus iria); conditions: Table 2.1, CYPIR growth stage 13-14, height 3-5 cm, 14 DAT, water 300 l/ha
Outline: as §1

[15] = system: BOILF (Spermacoce latifolia); conditions: Table 1.16, A-1 25, B-2 400 g ai/ha, 21 DAT, water 200 l/ha
Outline: as §1

[16] = system: AVESG (Avena strigosa); conditions: Table 1.6; AVESG growth stage 11-21, height 5-10 cm; A-1 25, B-2 400 g ai/ha; 14 DAT; water 200 l/ha
Outline: as §1

[17] = system: CYNDA (Cynodon dactylon); conditions: A-1 25, B-6 252 g ai/ha, 28 DAT, water 400 l/ha
Outline: as §1

[18] = system: AMAPA (Amaranthus palmeri); conditions: Table 1.27, AMAPA height 30 cm, 21 DAT, water 200 l/ha
Outline: as §1

[19] = 42 DAT, A-1 18 g ai/ha, growth stage 15-16, height 27-33 cm
[20] = 21 DAT, A-1 12.5 g ai/ha, growth stage 23-30, height 15-20 cm
[21] = 21 DAT, A-1 18 g ai/ha, growth stage 23-30, height 15-20 cm
[22] = 7 DAT, A-1 12.5 g ai/ha, growth stage 23-29, height 20-25 cm
[23] = 7 DAT, A-1 18 g ai/ha, growth stage 23-29, height 20-25 cm
[24] = 21 DAT, A-1 12.5 g ai/ha, growth stage 23-29, height 20-25 cm
[25] = 21 DAT, A-1 18 g ai/ha, growth stage 23-29, height 20-25 cm

SMILES: CCOC(=O)COc1ccccc1Oc1nc(-n2c(=O)cc(C(F)(F)F)n(C)c2=O)c(F)cc1Cl [A-1, ethyl 2-[2-[[3-chloro-5-fluoro-6-[3-methyl-2,6-dioxo-4-(trifluoromethyl)pyrimidin-1-yl]-2-pyridyl]oxy]phenoxy]acetate]
- % herbicidal activity [1]: 70%
- % herbicidal activity ([2]; 7 DAT, A-1 12.5 g ai/ha, growth stage 15-16, height 50-60 cm): 80%
- % Herbicidal activity ([2]; 21 DAT, A-1 12.5 g ai/ha, growth stage 15-16, height 27-33 cm): 35%
- % herbicidal activity ([2]; 21 DAT, A-1 12.5 g ai/ha, growth stage 15-16, height 50-60 cm): 70%
- % herbicidal activity ([2]; 28 DAT, A-1 12.5 g ai/ha, growth stage 15-16, height 50-60 cm): 50%
- % Herbicidal activity ([2]; 42 DAT, A-1 12.5 g ai/ha, growth stage 15-16, height 27-33 cm): 20%
- % Herbicidal activity [2, 19]: 30%
- % herbicidal activity [2, 19]: 20%
- % herbicidal activity ([2]; Table 1.12, ZEAMX volunteer corn, A-1 50, B-2 400 g ai/ha, 21 DAT, water 100 l/ha): 83%
- % herbicidal activity ([2]; Table 6.1, ZEAMX growth stage 15-16, height 50-60 cm, A-1 18, B-6 252 g ai/ha, 7 DAT, 200 l/ha water): 85%
- % herbicidal activity ([3]; Table 1.11, A-1 25, B-2 400 g ai/ha, water 100 l/ha): 85%
- % herbicidal activity ([3]; Table 1.16, A-1 25, B-2 400 g ai/ha, water 200 l/ha): 82%
- % herbicidal activity [4]: 61%
- % herbicidal activity ([5]; 7 DAT, A-1 12.5 g ai/ha, growth stage 23-30, height 15-20 cm): 20%
- % herbicidal activity ([5]; 7 DAT, A-1 18 g ai/ha, growth stage 23-30, height 15-20 cm): 40%
- % Herbicidal activity [5, 20]: 30% and 20%
- % herbicidal activity [5, 20]: 20% and 30%
- % Herbicidal activity [5, 21]: 30%
- % herbicidal activity [5, 21]: 30% and 40%
- % Herbicidal activity ([5]; 28 DAT, A-1 12.5 g ai/ha, growth stage 23-30, height 15-20 cm): 20%
- % Herbicidal activity ([5]; 28 DAT, A-1 18 g ai/ha, growth stage 23-30, height 15-20 cm): 30%
- % herbicidal activity ([5]; Table 6.1, ECHCG growth stage 23-30, height 15-20 cm, A-1 12.5, B-6 150 g ai/ha, 7 DAT, 200 l/ha water): 20%
- % herbicidal activity ([5]; Table 6.1, ECHCG growth stage 23-30, height 15-20 cm, A-1 12.5, B-6 252 g ai/ha, 7 DAT, 200 l/ha water): 20%
- % herbicidal activity ([5]; Table 6.1, ECHCG growth stage 23-30, height 15-20 cm, A-1 18, B-6 150 g ai/ha, 7 DAT, 200 l/ha water): 30%
- % herbicidal activity ([5]; Table 6.1, ECHCG growth stage 23-30, height 15-20 cm, A-1 18, B-6 252 g ai/ha, 7 DAT, 200 l/ha water): 40%
- % Herbicidal activity [6, 22]: 60%
- % herbicidal activity [6, 22]: 60%
- % Herbicidal activity [6, 23]: 70%
- % herbicidal activity [6, 23]: 75%
- % Herbicidal activity [6, 24]: 90% and 60%
- % herbicidal activity [6, 24]: 70% and 60%
- % Herbicidal activity [6, 25]: 70%
- % herbicidal activity [6, 25]: 70% and 75%
- % herbicidal activity ([6]; Table 6.1, HORVW growth stage 23-29, height 20-25 cm, A-1 12.5, B-6 150 g ai/ha, 7 DAT, 200 l/ha water): 60%
- % herbicidal activity ([6]; Table 6.1, HORVW growth stage 23-29, height 20-25 cm, A-1 12.5, B-6 252 g ai/ha, 7 DAT, 200 l/ha water): 60%
- % herbicidal activity ([6]; Table 6.1, HORVW growth stage 23-29, height 20-25 cm, A-1 18, B-6 150 g ai/ha, 7 DAT, 200 l/ha water): 70%
- % herbicidal activity ([6]; Table 6.1, HORVW growth stage 23-29, height 20-25 cm, A-1 18, B-6 252 g ai/ha, 7 DAT, 200 l/ha water): 70%
- % herbicidal activity ([7]; 7 DAT, A-1 12.5 g ai/ha, growth stage 22-25, height 20-25 cm): 70%
- % herbicidal activity ([7]; 21 DAT, A-1 12.5 g ai/ha, growth stage 22-25, height 20-25 cm): 70%
- % herbicidal activity ([7]; Table 1.28, LOLMU growth stage 11-23, height 5-10 cm, A-1 25, B-2 400 g ai/ha, 28 DAT, water 200 l/ha): 43%
- % herbicidal activity ([7]; Table 6.1, LOLMU growth stage 22-25, height 20-25 cm, A-1 12.5, B-6 252 g ai/ha, 7 DAT, 200 l/ha water): 40%
- % herbicidal activity ([7]; Table 6.1, LOLMU growth stage 22-25, height 20-25 cm, A-1 18, B-6 252 g ai/ha, 7 DAT, 200 l/ha water): 50%
- % Herbicidal activity ([8]; 7 DAT, height 10-15 cm): 75%
- % Herbicidal activity ([8]; 21 DAT, height 10-15 cm): 70%
- % herbicidal activity ([8]; 21 DAT, A-1 18 g ai/ha, growth stage 21-22, height 10-15 cm): 35%
- % Herbicidal activity ([8]; 41 DAT, height 10-15 cm): 55%
- % Herbicidal activity ([8]; 42 DAT, height 10-15 cm): 55%
- % herbicidal activity ([8]; Table 4.1, DIGSA height 2-8 cm, A-1 12.5, B-2 655 g ai/ha, 21 DAT, water 140 l/ha): 27%
- % herbicidal activity ([8]; Table 4.1, DIGSA height 2-8 cm, A-1 25, B-2 655 g ai/ha, 21 DAT, water 140 l/ha): 28%
- % herbicidal activity ([8]; Table 4.1, DIGSA height 2-8 cm, A-1 50, B-2 655 g ai/ha, 21 DAT, water 140 l/ha): 55%
- % herbicidal activity ([8]; Table 6.1, DIGSA growth stage 21-22, height 10-15 cm, A-1 18, B-6 252 g ai/ha, 7 DAT, 200 l/ha water): 40%
- % herbicidal activity ([9]; Table 4.2, A-1 25, B-2 655 g ai/ha): 22%
- % herbicidal activity ([9]; Table 4.2, A-1 50, B-2 655 g ai/ha): 42%
- % herbicidal activity [10]: 22%
- % herbicidal activity [11]: 60%
- % herbicidal activity [12]: 72%
- % Herbicidal activity ([13]; A-1 12.5 g ai/ha): 60%
- % herbicidal activity ([13]; A-1 18 g ai/ha): 50%
- % herbicidal activity ([14]; A-1 12.5, B-2 500 g ai/ha): 30%
- % herbicidal activity ([14]; A-1 25, B-2 500 g ai/ha): 60%
- % herbicidal activity [15]: 72%
- % herbicidal activity [16]: 78%
- % herbicidal activity ([17]; Table 5.4, CYNDA growth stage 76-77, height 15-16 cm): 53%
- % herbicidal activity ([17]; Table 5.5, CYNDA growth stage 72): 72%
- % herbicidal activity ([18]; A-1 12.5, B-2 400 g ai/ha): 70%
- % herbicidal activity ([18]; A-1 25, B-2 400 g ai/ha): 85%
